Experimental data: US20050031597A1, “Cells and improved method for preserving cells” (priority 2003, published 2005)

Tested on: erythrocytic cells
Experiment: Hemolysis / survival of freeze-dried and rehydrated erythrocytic cells

Row | Compound | hemolysis after freeze-drying and rehydration (FIG. 22 [T+αC]+5 min+Zn: α-crystallin 1.2 mg/ml loading, 5 min pre-hydration, 500 μM ZnSO4 in rehydration buffer) [%] | cell survival (α-crystallin, 5 min pre-hydration and 500 μM ZnSO4 combined) [%] | cell survival after rehydration (1.2 mg/ml α-crystallin in loading plus 0.5 mg/ml α-crystallin in rehydration buffer) | hemolysis after freeze-drying and rehydration (FIG. 22 [T+αC]+5 min: α-crystallin 1.2 mg/ml in loading buffer, pre-hydrated 37° C. 5 min) [%] | percent hemolysis after freeze-drying and direct rehydration (loaded in 800 mM trehalose, 100 mOsm ADSOL, 6.6 mM Na-phosphate and 1.2 mg/ml α-crystallin (FIG. 21)) [%]
1 | O=S(=O)([O-])[O-].[Zn+2] [ZnSO4] | 38 | 62 | – | – | –
2 | α-crystallin: member of the small heat shock protein family | – | – | does not result in higher cell survival | 47 | 49
